Measured values reported in PMC12365674, “Diverse metabolites with anti-psoriasis potential from different fermentations of the fungicolous fungus Xylarialongipes HFG1018” (IMA Fungus, 2025).
Entries after “also recorded” stand apart in the source; their conditions may differ. Like-named read-outs stand apart in the source and are kept apart here.

Legend:
[1] = tested on: LPS-induced B lymphocytes; test: Anti-proliferative activity against LPS-induced B lymphocytes (CCK-8); type: cell-based; conditions: Mus musculus, Lymphocyte, c = 40 μM, read-out: Inhibition rate (%) B
lymphocytes [2] = test: Lymphocyte viability (CCK-8); type: cell-based, mouse; conditions: c = 40 μM
[3] = tested on: LPS-induced B lymphocytes; test: Anti-proliferative activity against LPS-induced B lymphocytes (CCK-8); type: cell-based, mouse; conditions: for IC50: induced proliferation of B lymphocytes (LPS), CCK-8, read-out: B cells IC50
Procedure: (§1) As previously described, the immunosuppressive activity, lymphocyte viability, and antiproliferative activity against HaCaT cells were evaluated using the CCK-8 method ([Zhao et al. 2023], [2024]).
(§2) In the immunosuppressive and lymphocyte viability, the primary tested concentration of all compounds was 20.0 μM, and dexamethasone (Dex) (c = 2.0 μM) was used as a positive control. In the antiproliferative activity against HaCaT cells, the primary tested concentration of all compounds was 40 μM, and the positive control was methotrexate (MTX) (c = 40.0 μM). When the inhibition rates are greater than 50%, the IC50 values of active compounds will be further tested and calculated. All experiments were performed in triplicate.

IL-2 = test: Cytokine analysis by ELISA of induced T cells: IL-2; type: cell-based, mouse; conditions: 40 μM; ConA-induced T cells, 48 h; P < 0.01 vs. model
Procedure: (§3) The mononuclear cell suspensions (2 × 10^5 cells/well) were cultured with ConA (5 μg/mL) in 96-well plates, and indicated concentrations of compounds 2, 15, and 32 were added simultaneously. After a 48-hour culture period, cytokines in the supernatants were quantified using mouse IFN-γ, IL-2, and IL-17A ELISA kits (Mabtech, Sweden), following the manufacturer’s protocol ([Jing et al. 2021]; [Zhao et al. 2024]).

[4] = tested on: ConA-induced T lymphocytes; test: Anti-proliferative activity against ConA-induced T lymphocytes (CCK-8); type: cell-based; conditions: Mus musculus, T-lymphocyte, c = 40 μM, read-out: Inhibition rate (%) T
[5] = tested on: ConA-induced T lymphocytes; test: as above; type: cell-based; conditions: Mus musculus, T-lymphocyte
Procedure: as §1, §2

lymphocytes [6] = test: Lymphocyte viability (CCK-8); type: cell-based, mouse; conditions: c = 20 μM
Procedure: as §1, §2

IFN-γ = test: Cytokine analysis by ELISA of induced T cells: IFN-γ; type: cell-based, mouse; conditions: ConA-induced T cells, 48 h; all sample groups; P < 0.0001 vs. model
Procedure: as §3

HaCaT cells [7] = test: EdU proliferation assay, HaCaT cells; type: cell-based; conditions: c = 20 μM; compared to the control group
Procedure: (§4) EdU fluorescence labeling for cell proliferation of induced T/B lymphocytes (2 × 10^5 cells/well) and HaCaT cells (1 × 10^4 cells/well) of active compounds 10, 19, 23, 32, 38, and 41 (final concentration 10 or 20 μM) was performed as previously reported ([Biram and Shulman 2020]; [Zhao et al. 2024]). EdU (HF488) (the Click-iT™ EdU Flow Cytometry Assay Kit, APExBIO, USA) was added 24 h (final concentration 50 μM, T and B cells) and 4 h (final concentration 10 μM, HaCaT cells) before harvesting the cells. All procedures were performed according to the manufacturer’s instructions for the click reaction. EdU-positive cells and proliferating phase cells were analyzed with a fluorescence microscope.

[8] = tested on: induced T cells (Con A 5 μg/mL); test: EdU proliferation assay, induced T cells; type: cell-based, mouse; conditions: c = 10 μM; relative to the model group
Procedure: as §4

[9] = tested on: NF-κB p65 phosphorylation; test: Immunofluorescence of p-p65/p65 in HaCaT cells; type: cell-based; conditions: 27.0 μM, 36 h, P < 0.01 vs. Con
Procedure: The immunofluorescence protocol was performed using the reported method ([Zhao et al. 2024]). HaCaT cells (2.0 × 10^5 cells/well) were plated onto 6-well plates with glass coverslips and adhered overnight (12 h) before compound addition. After treatment with active compounds 10 (final concentration 31 μM) and 32 (final concentration 27 μM) for 36 h, the supernatant was removed, and the cells were washed twice with PBS, fixed with 4% paraformaldehyde for 15 min, and then washed with PBS three times. After blocking, incubated with NF-κB p65 (p65)/phosphorylated NF-κB p65 (p-p65) antibodies and secondary antibodies (Servicebio, China). Then, cells were counterstained with 4,6-[…]-2-phenylindole (DAPI) for 5 min. After the PBS washing, fluorescent seal liquid was added, and the plate was monitored under an imaging system (Pannoramic MIDI, 3Dhistech, Hungary). The nucleus is blue, and positive cells are green (p-p65) or red (p65). The immunofluorescence areas for each indicator were analyzed in ImageJ.

[10] = tested on: induced B cells (LPS 15 μg/mL); test: EdU proliferation assay, induced B cells; type: cell-based, mouse; conditions: c = 10 μM; relative to the model group
Procedure: as §4

HaCaT cells [11] = test: Antiproliferative activity against HaCaT cells (CCK-8); type: cell-based; conditions: Homo sapiens, HaCaT, read-out: IC50 against the proliferation of HaCaT cells
Procedure: as §1, §2

[12] = Lymphocyte viability (CCK-8); type: cell-based, mouse; conditions: mouse, lymphocytes; lymphocyte viability; CCK-8
Procedure: as §1, §2

IL-17A = test: Cytokine analysis by ELISA of induced T cells: IL-17A; type: cell-based, mouse; conditions: 10 μM; ConA-induced T cells, 48 h; P < 0.01 vs. model
Procedure: as §3

| Compound | inhibition at 40 µM [1] | Cell validity (%) (lymphocytes [2]) | inhibition at 20 µM ([3]; Mus musculus, Lymphocyte, c = 20 μM, LPS-induced B lymphocytes, read-out: Inhibition rate (%) B) | IL-2 levels (IL-2) | inhibition at 40 µM [4] | inhibition at 20 µM ([5]; c = 20 μM, ConA-induced T lymphocytes, read-out: Inhibition rate (%) T) | Cell validity (%) (lymphocytes [6]) | IFN-γ secretion (IFN-γ) | proliferation rates of HaCaT cells measured by EdU (HaCaT cells [7]) | proliferation of induced T cells measured by EdU [8] | NF-κB activation (ratio p-p65/p65) [9] | IC50 ([3]; Mus musculus, Lymphocyte) | IC50 [3] | proliferation of induced B cells measured by EdU [10] | IC50 ([5]; induced proliferation of T lymphocytes (ConA), CCK-8, read-out: T cells IC50) | IC50 (HaCaT cells [11]) | CC50 [12] | IL-17A levels (IL-17A) |
| --- | --- | --- | --- | --- | --- | --- | --- | --- | --- | --- | --- | --- | --- | --- | --- | --- | --- | --- |
| C[C@]1(CCO)CC[C@H]2C(=CC[C@@H]3[C@]2(C)CCC[C@]3(C)C(=O)O)C1 [Compound 15, 16-hydroxyisopimar-7-en-19-oic acid] | 29 ± 12.2% | 80.2 ± 1.8% | 23 ± 4.3% | significantly reduced | 28.8 ± 5.8% | 26.4 ± 6.3% | 89.9 ± 7.5% | significant reduction; also recorded: significantly reduced |  |  |  |  |  |  |  |  |  |  |
| CO[C@@H]1C=C2[C@@H]3CC[C@H]([C@H](C)/C=C/[C@H](C)C(C)C)[C@@]3(C)CC[C@@H]2[C@@]2(C)CC[C@H](O)C[C@]12O [Compound 32, (3β,5α,6β,22E)-6-methoxyergosta-7,22-diene-3,5-diol] |  |  |  |  |  |  |  | significant reduction; also recorded: significantly reduced | significantly reduced | significantly suppressed the proliferation | significantly attenuated NF-κB activation | 8 to 20 µM | 6 ± 0.3 µM | significantly suppressed the proliferation | 3.1 ± 0.2 µM | 27 ± 1.3 µM | > 20 µM | markedly lowered; also recorded: inhibiting IL-17A secretion |
